Data from ChEMBL document CHEMBL5543137, “Design and Synthesis of Novel Ultralong-Acting Peptides as EDP-EBP Interaction Inhibitors for Pulmonary Fibrosis Treatment” (J Med Chem, 2024).
The source made the active and inactive calls. No cut-off for these calls is given here. Starred links: 1 amine or outer side, 2 acyl side, 3 side chain; linkers in the order of their positions; H or OH if unused. Non-standard residues stand in square brackets, D forms with d. Residues, ends and D or L forms follow the SMILES beside them. *: point of attachment. C20 diacid = O=C(O)CCCCCCCCCCCCCCCCCCC(=O)*; γGlu = O=C(O)[C@H](CCC(=O)[*:2])N[*:1]; Iva = CC[C@](C)(N)C(=O)O; PEG2 = NCCOCCOCCC(=O)O

Legend:
Mus musculus [1] = experiment: Antifibrotic activity against BLM-induced C57BL/6 mouse pulmonary fibrosis model assessed as reduction in Col5a1 gene expression at 240 ug/kg/day, sc administered for 2 weeks starting from 7 days post BLM induction and measured after 21 days post BLM induction by ScRNA-sequencing analysis; format: functional, organism-based; settings: dose 240.0 µg/kg/day
A549 [2] = experiment: Inhibition of EBP signaling pathway in TGFalpha induced human A549 cells assessed as reduction in PI3K phosphorylation at 10 uM incubated for 24 hrs by Western blotting analysis; format: cell-based
Mus musculus [3] = experiment: Antifibrotic activity against BLM-induced C57BL/6 mouse pulmonary fibrosis model assessed as reduction in Timp1 gene expression at 240 ug/kg/day, sc administered for 2 weeks starting from 7 days post BLM induction and measured after 21 days post BLM induction by ScRNA-sequencing analysis; format: functional, organism-based; settings: dose 240.0 µg/kg/day
A549 [4] = experiment: Antifibrotic activity against TNFalpha-induced human A549 cells assessed as downregulation of vimentin gene expression level at 10 uM incubated for 24 hrs by RT-qPCR analysis; format: functional, cell-based
Mus musculus [5] = experiment: Antifibrotic activity against BLM-induced C57BL/6 mouse pulmonary fibrosis model assessed as reduction in lung hydroxyproline content at 150 ug/kg, sc administered for 2 weeks starting from 7 days post BLM induction and measured after 21 days post BLM induction; format: functional, organism-based; settings: dose 150.0 µg/kg
[6] = Tmax in Sprague-Dawley rat serum at 0.04 mg/kg, sc administered as single dose measured upto 10 days by LC-MS/MS method; format: ADME, organism-based; settings: time < 10 day
Mus musculus [7] = experiment: Antifibrotic activity against BLM-induced C57BL/6 mouse pulmonary fibrosis model assessed as reduction in Ctgf gene expression at 240 ug/kg/day, sc administered for 2 weeks starting from 7 days post BLM induction and measured after 21 days post BLM induction by ScRNA-sequencing analysis; format: functional, organism-based; settings: dose 240.0 µg/kg/day
A549 [8] = experiment: Inhibition of EBP signaling pathway in TGFalpha induced human A549 cells assessed as reduction in AKT phosphorylation at 10 uM incubated for 24 hrs by Western blotting analysis; format: cell-based
Mus musculus [9] = experiment: Antifibrotic activity against BLM-induced C57BL/6 mouse pulmonary fibrosis model assessed as reduction in vimentin gene expression at 240 ug/kg/day, sc administered for 2 weeks starting from 7 days post BLM induction and measured after 21 days post BLM induction by ScRNA-sequencing analysis; format: functional, organism-based; settings: dose 240.0 µg/kg/day
Mus musculus [10] = experiment: Antifibrotic activity against BLM-induced C57BL/6 mouse pulmonary fibrosis model assessed as reduction in TIMP-1 expression at 240 ug/kg/day, sc administered for 2 weeks starting from 7 days post BLM induction and measured after 21 days post BLM induction in presence of Clo-Lip; format: functional, organism-based; settings: dose 240.0 µg/kg/day
Mus musculus [11] = experiment: Antifibrotic activity against BLM-induced C57BL/6 mouse pulmonary fibrosis model assessed as reduction in Vimentin expression at 240 ug/kg/day, sc administered for 2 weeks starting from 7 days post BLM induction and measured after 21 days post BLM induction in presence of Clo-Lip; format: functional, organism-based; settings: dose 240.0 µg/kg/day
RAW264.7 [12] = experiment: Antifibrotic activity against BLM-induced mouse RAW264.7 cells assessed as upregulation of MMP-12 mRNA expression at 10 uM incubated for 6 to 24 hrs by RT-qPCR analysis; format: functional, cell-based; settings: time 6-24 hrs
TC-1 [13] = experiment: Inhibition of EBP signaling pathway in TGFalpha induced mouse TC-1 cells assessed as reduction in PI3K phosphorylation at 10 uM incubated for 24 hrs by Western blotting analysis; format: cell-based
Mus musculus [14] = experiment: Antifibrotic activity against BLM-induced C57BL/6 mouse pulmonary fibrosis model assessed as reduction in FN expression at 240 ug/kg/day, sc administered for 2 weeks starting from 7 days post BLM induction and measured after 21 days post BLM induction in presence of Clo-Lip; format: functional, organism-based; settings: dose 240.0 µg/kg/day
A549 [15] = experiment: Antifibrotic activity against TNFalpha-induced human A549 cells assessed as downregulation of Fn gene expression level at 10 uM incubated for 24 hrs by RT-qPCR analysis; format: functional, cell-based
Mus musculus [16] = experiment: Antifibrotic activity against BLM-induced sc dosed C57BL/6 mouse pulmonary fibrosis model assessed as reversal of body weight indices administered for 2 weeks starting from 7 days post BLM induction and measured after 21 days post BLM induction; format: functional, organism-based; settings: dose 30-240 µg/kg
Mus musculus [17] = experiment: Antifibrotic activity against BLM-induced C57BL/6 mouse pulmonary fibrosis model assessed as reduction in fibrotic accumulation in lungs at 150 ug/kg, sc administered for 2 weeks starting from 7 days post BLM induction and measured after 21 days post BLM induction by immunohistochemical staining based assay; format: functional, organism-based; settings: dose 150.0 µg/kg
Mus musculus [18] = experiment: Antifibrotic activity against BLM-induced C57BL/6 mouse pulmonary fibrosis model assessed as reduction in Cthrc1 gene expression at 240 ug/kg/day, sc administered for 2 weeks starting from 7 days post BLM induction and measured after 21 days post BLM induction by ScRNA-sequencing analysis; format: functional, organism-based; settings: dose 240.0 µg/kg/day
A549 [19] = experiment: Antifibrotic activity against TNFalpha-induced human A549 cells assessed as downregulation of vimentin expression level at 10 uM incubated for 24 hrs by Western blotting analysis; format: functional, cell-based
RAW264.7 [20] = experiment: Effect on cell proliferation in mouse RAW264.7 cells at 10 uM after 24 hrs by flow cytometry analysis; format: functional, cell-based
Mus musculus [21] = experiment: Antifibrotic activity against BLM-induced C57BL/6 mouse pulmonary fibrosis model assessed as improvement in lung condition at 30 to 240 ug/kg, sc administered for 2 weeks starting from 7 days post BLM induction and measured after 21 days post BLM induction; format: functional, organism-based; settings: dose 30-240 µg/kg
TC-1 [22] = experiment: Inhibition of EBP signaling pathway in TGFalpha induced mouse TC-1 cells assessed as reduction in AKT phosphorylation at 10 uM incubated for 24 hrs by Western blotting analysis; format: cell-based
Mus musculus [23] = experiment: Antifibrotic activity against BLM-induced C57BL/6 mouse pulmonary fibrosis model assessed as reduction in spp1 gene expression at 240 ug/kg/day, sc administered for 2 weeks starting from 7 days post BLM induction and measured after 21 days post BLM induction by ScRNA-sequencing analysis; format: functional, organism-based; settings: dose 240.0 µg/kg/day
[24] = Half-life in Sprague-Dawley rat serum at 0.12 mg/kg, sc administered as single dose measured upto 10 days by LC-MS/MS method; format: ADME, organism-based; settings: time < 10 day
Mus musculus [25] = experiment: Antifibrotic activity against BLM-induced C57BL/6 mouse pulmonary fibrosis model assessed as reduction in TIMP-1 expression at 240 ug/kg/day, sc administered for 2 weeks starting from 7 days post BLM induction and measured after 21 days post BLM induction in presence of GM6001; format: functional, organism-based; settings: dose 240.0 µg/kg/day
Mus musculus [26] = experiment: Antifibrotic activity against BLM-induced C57BL/6 mouse pulmonary fibrosis model assessed as reduction in Fbn1 gene expression at 240 ug/kg/day, sc administered for 2 weeks starting from 7 days post BLM induction and measured after 21 days post BLM induction by ScRNA-sequencing analysis; format: functional, organism-based; settings: dose 240.0 µg/kg/day
Mus musculus [27] = experiment: Antifibrotic activity against BLM-induced C57BL/6 mouse pulmonary fibrosis model assessed as reduction in mortality at 150 ug/kg, sc administered for 2 weeks starting from 7 days post BLM induction and measured after 21 days post BLM induction; format: functional, organism-based; settings: dose 150.0 µg/kg
Mus musculus [28] = experiment: Antifibrotic activity against BLM-induced C57BL/6 mouse pulmonary fibrosis model assessed as reduction in Col3a1 gene expression at 240 ug/kg/day, sc administered for 2 weeks starting from 7 days post BLM induction and measured after 21 days post BLM induction by ScRNA-sequencing analysis; format: functional, organism-based; settings: dose 240.0 µg/kg/day
Mus musculus [29] = experiment: Antifibrotic activity against BLM-induced C57BL/6 mouse pulmonary fibrosis model assessed as reduction in Adamts2 gene expression at 240 ug/kg/day, sc administered for 2 weeks starting from 7 days post BLM induction and measured after 21 days post BLM induction by ScRNA-sequencing analysis; format: functional, organism-based; settings: dose 240.0 µg/kg/day

In the case of `CC[C@](C)(NC(=O)[C@@H](NC(=O)CCOCCOCCNC(=O)CCOCCOCCNC(=O)CC[C@H](NC(=O)CCCCCCCCCCCCCCCCCCC(=O)O)C(=O)O)C(C)C)C(=O)NCC(=O)N[C@@H](CO)C(=O)N1CCC[C@H]1C(=O)N[C@@H](CO)C(=O)N[C@@H](C)C(=O)N[C@@H](CCC(N)=O)C(=O)N[C@@H](CCC(=O)O)C(=O)N[C@@H](CCC(=O)O)C(=O)N[C@@H](C)C(=O)N[C@@H](CO)C(=O)N1CCC[C@H]1C(=O)N[C@@H](C)C(N)=O` ({C20 diacid-γGlu-PEG2-PEG2}-V[Iva]GSPSAQEEASPA-NH2), the Activity (Mus musculus [1]) is reported as “Active”, the inhibition (A549 [2]) is reported as “Active” and the Activity (Mus musculus [3]) is reported as “Active”. For the same compound, the Activity (A549 [4]) was “Active”, the Activity (Mus musculus [5]) was “Active” and the Tmax [6] was 24 h. The Activity (Mus musculus [7]) was “Active”, the inhibition (A549 [8]) was “Active” and the Activity (Mus musculus [9]) was “Active”. The Activity (Mus musculus [10]) was “inactive”, the Activity (Mus musculus [11]) was “inactive” and the Activity (RAW264.7 [12]) was “Active”. The inhibition (TC-1 [13]) was “Active”, the Activity (Mus musculus [14]) was “inactive” and the Activity (A549 [15]) was “Active”. For the same compound, the Activity (Mus musculus [16]) was “Dose-Dependent Effect”, the Activity (Mus musculus [17]) was “Active” and the Activity (Mus musculus [18]) was “Active”. For the same compound, the Activity (A549 [19]) was “Active”, the Activity (RAW264.7 [20]) was “inactive” and the Activity (Mus musculus [21]) was “Active”. For the same compound, the inhibition (TC-1 [22]) was “Active”, the Activity (Mus musculus [23]) was “Active” and the half-life [24] was 33 h. The Activity (Mus musculus [25]) was “inactive”, the Activity (Mus musculus [26]) was “Active” and the Activity (Mus musculus [27]) was “Active”. For the same compound, the Activity (Mus musculus [28]) was “Active” and the Activity (Mus musculus [29]) was “Active”.
